For the assay, the target named is T1, human DPP-IV (Homo sapiens, UniProt P27487).
T1 construct: made in house; host or cells: Pichia pastoris, purified from the culture medium
T1 sequence (P27487 31-766): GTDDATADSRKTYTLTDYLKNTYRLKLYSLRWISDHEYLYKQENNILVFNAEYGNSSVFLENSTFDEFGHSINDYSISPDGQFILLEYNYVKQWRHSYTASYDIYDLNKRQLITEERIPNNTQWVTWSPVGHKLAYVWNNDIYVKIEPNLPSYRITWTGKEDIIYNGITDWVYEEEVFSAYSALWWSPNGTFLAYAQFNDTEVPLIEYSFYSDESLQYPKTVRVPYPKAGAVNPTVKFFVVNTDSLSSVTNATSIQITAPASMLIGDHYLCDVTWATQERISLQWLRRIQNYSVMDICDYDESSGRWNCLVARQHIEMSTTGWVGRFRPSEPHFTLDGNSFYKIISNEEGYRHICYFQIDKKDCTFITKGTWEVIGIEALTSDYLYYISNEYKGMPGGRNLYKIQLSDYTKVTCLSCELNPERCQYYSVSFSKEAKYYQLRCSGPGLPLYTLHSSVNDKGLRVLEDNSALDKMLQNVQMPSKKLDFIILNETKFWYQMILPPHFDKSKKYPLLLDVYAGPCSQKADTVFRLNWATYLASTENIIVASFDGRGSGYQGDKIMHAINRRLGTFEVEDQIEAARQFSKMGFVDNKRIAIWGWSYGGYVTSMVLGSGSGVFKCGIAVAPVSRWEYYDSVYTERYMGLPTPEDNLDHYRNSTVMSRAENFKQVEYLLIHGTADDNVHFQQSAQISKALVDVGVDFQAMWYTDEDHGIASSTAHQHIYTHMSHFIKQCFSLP
Nature of the assay: DPP-IV activity assay (colorimetric / fluorometric), IC50 determination. The conditions noted are these: natural human DPP-IV from human plasma pool or recombinant human DPP-IV; 37° C., pH 7.8. The class given is biochemical. Here is the method:
The following tests were carried out in order to determine the activity of the compounds of formula I.
Activity of DPP-IV inhibitors are tested with natural human DPP-IV derived from a human plasma pool or with recombinant human DPP-IV. Human citrate plasma from different donors is pooled, filtered through a 0.2 micron membrane under sterile conditions, and aliquots of 1 ml are shock frozen and stored at −120° C. until used. In the colorimetric DPP-IV assay 5 to 10 μl human plasma, and in the fluorometric assay 1.0 μl of human plasma in a total assay volume of 100 μl is used as an enzyme source. The cDNA of the human DPP-IV sequence of amino acid 31- to 766, restricted for the N-terminus and the transmembrane domain, is cloned into pichia pastoris. The sequence is available under Accession Number NM_001935. It is also disclosed, for example, in Misumi et al. (1992), molecular cloning and sequence analysis of human dipeptidyl peptidase IV, a serine proteinase of the cell surface. Biochim Biophys. Acta 1131(3), 333-336. Human DPP-IV is expressed and purified from the culture medium using conventional column chromatography including size exclusion and anion and cation chromatography. The purity of the final enzyme preparation of Coomassie blue SDS-PAGE is >95%. In the colorimetric DPP-IV assay 20 ng rec.-h DPP-IV and in the fluorometric assay 2 ng rec-h DPP-IV in a total assay volume of 100 μl is used as an enzyme source.
In the fluorogenic assay Ala-Pro-7-amido-4-trifluoromethylcoumarin (Calbiochem No 125510) is used as a substrate. A 20 mM stock solution in 10% DMF/H2O is stored at −20° C. until use. In IC50 determinations a final substrate concentration of 50 μM is used. In assays to determine kinetic parameters as Km, Vmax, Ki, the substrate concentration is varied between 10 μM and 500 μM.
In the colorimetric assay H-Ala-Pro-pNA.HCl (Bachem L-1115) is used as a substrate. A 10 mM stock solution in 10% MeOH/H2O is stored at −20° C. until use. In IC50 determinations a final substrate concentration of 200 μM is used. In assays to determine kinetic parameters as Km, Vmax, Ki, the substrate concentration is varied between 100 μM and 2000 μM.
Fluorescence is detected in a Perkin Elmer Luminescence Spectrometer LS 50B at an excitation wavelength of 400 nm and an emission wavelength of 505 nm continuously every 15 seconds for 10 to 30 minutes. Initial rate constants are calculated by best fit linear regression.
The absorption of pNA i.e., para-nitroanilin, liberated from the colorimetric substrate is detected in a Packard SpectraCount at […] continuously every 2 minutes for 30 to 120 minutes. Initial rate constants are calculated by best fit linear regression.
DPP-IV activity assays are performed in 96 well plates at 37° C. in a total assay volume of 100 μl. The assay buffer consists of 50 mM Tris/HCl pH 7.8 containing 0.1 mg/ml BSA and 100 mM NaCl. Test compounds are solved in 100% DMSO, diluted to the desired concentration in 10% DMSO/H2O. The final DMSO concentration in the assay is 1% (v/v). At this concentration enzyme inactivation by DMSO is <5%. Compounds are with (10 minutes at 37° C.) and without preincubation with the enzyme. Enzyme reactions are started with substrate application followed by immediate mixing.
IC50 determinations of test compounds are calculated by non-linear best fit regression of the DPP-IV inhibition of at least 5 different compound concentrations. Kinetic parameters of the enzyme reaction are calculated at least 5 different substrate concentrations and at least 5 different test compound concentrations.
As to `NCc1c(N)nc2c(c1-c1ccc(Cl)cc1Cl)CCc1ccccc1-2` [Example 3, 3-Aminomethyl-4-(2,4-dichloro-phenyl)-5,6-dihydro-benzo[h]quinolin-2-ylamine], the IC50 worked out at 45 nM.

`COc1cc2c(cc1OC)-c1nc(N)c(CN)c(-c3ccc(Cl)cc3Cl)c1C2` [Example 7, 3-Aminomethyl-4-(2,4-dichloro-phenyl)-7,8-dimethoxy-5H-indeno[1,2-b]pyridin-2-ylamine]: the IC50 came out at 2.7 nM.

For `NCc1c(N)nc2c(c1-c1ccc(Cl)cc1Cl)COc1ccccc1-2` [Example 9, 2-Aminomethyl-1-(2,4-dichloro-phenyl)-10H-9-oxa-4-aza-phenanthren-3-ylamine], the IC50 came to 18 nM.

As for `NCc1c(N)nc2c(c1-c1ccc(Cl)cc1Cl)CCc1sccc1-2` [Example 10, 3-Aminomethyl-4-(2,4-dichloro-phenyl)-5,6-dihydro-thieno[2,3-h]quinolin-2-ylamine], the 50% inhibitory concentration (IC50) stood at 80 nM.

Take `Cc1ccc(-c2c(CN)c(N)nc3ccccc23)cc1` [Example 25, 3-Aminomethyl-4-p-tolyl-quinolin-2-ylamine]: the IC50 is 1910 nM. With `NCc1c(N)nc2ccc(Cl)cc2c1-c1ccccc1Cl` [Example 28, 3-Aminomethyl-6-chloro-4-(2-chloro-phenyl)-quinolin-2-ylamine], the IC50 was found to be 1590 nM. For the molecule `NCc1c(N)nc2ccccc2c1-c1ccccc1Cl` [Example 32, 3-Aminomethyl-4-(2-chloro-phenyl)-quinolin-2-ylamine], the IC50 worked out at 366 nM.

The values are drawn from patent US6800650B2, “Pyridine and quinoline derivatives” (Hoffmann-La Roche Inc., priority 2002, dated 2004).
